According to patent US4596808A, “Pharmacologically active 3-substituted beta-carbolines useful as tranquilizers” (Schering Aktiengesellschaft, priority 1980, dated 1986):
Where two headings read alike, the source gives them in different places.

Assays:
benzodiazepine receptor [1] = assay: In vivo inhibition of 3H-flunitrazepam binding to the benzodiazepine receptor in living brain (ED50); settings: mice, subcutaneous, 3H-flunitrazepam i.v. 15 min later
benzodiazepine receptor [2] = assay: Displacement of 3H-flunitrazepam from benzodiazepine receptors in vitro (IC50); assay type: binding; settings: rat forebrain, 3H-flunitrazepam 1.0 nM, 0° C.
Source text: For example, it is known that certain locations in the central nervous system of vertebrates have a high specific affinity for bonding 1,4 and 1,5-benzodiazepines. (See, e.g., R. F. Squires & C. Braestrup, Nature [London] 266 [1977], 734, which is incorporated by reference herein). These locations are called benzodiazepine receptors.
This displacement activity of the compounds of this invention has been determined by measuring IC50 and ED50 values. The IC50 value is the concentration which causes a 50% displacement of the specific binding of ^3 H-flunitrazepam (1.0 nM, 0° C.) in samples with a total volume of 0.55 ml of a suspension of brain membrane, e.g., from rats.
The displacement test is carried out as follows:
0.5 ml of a suspension of untreated rat forebrain in 25 mM KH2 PO4, at a pH of 7.1 (5-10 mg of tissue per sample) were incubated with ^3 H-diazepam (specific activity 14.4 Ci/millimole, 1.9 nM) or ^3 H-flunitrazepam (specific activity 87 Ci/millimole, 1.0 nM) for 40-60 minutes at 0° C. After incubation, the suspension is filtered through a glass frit, the residue is washed twice with a cold buffer solution and the radioactivity is measured by scintillation counting.
The test is then repeated, except prior to addition of the radioactively marked benzodiazepine, a given amount or an excess amount of the compound whose displacement activity is to be ascertained, is added. The IC50 value can then be computed from the test results obtained.

[3] = system: pentazole-induced convulsions; assay: Antagonism of pentazole-induced convulsions; assay type: in vivo; settings: sc
Source text: Moreover, the antagonism of pentazole-induced convulsions was investigated.
The test has been performed according to known test models in pharmacology,e.g., described in R. A. Turner, Screening Methods in Pharmacology, Academic Press, N.Y. and London 1965, esp. p. 164 ff., or, Woodbury, P. M., Perry, I. K. and Schmidt, R. P. Antiepileptic Drugs, Raven Press, N.Y. 1972.

[4] = clonic, read-out: Antagonism of pentazole-induced convulsions, ED50 s.c., Clonic convulsions
[5] = death, read-out: Antagonism of pentazole-induced convulsions, ED50 s.c., Death
[6] = tonic, read-out: Antagonism of pentazole-induced convulsions, ED50 s.c., Tonic convulsions

## C(=NNc1ccccc1)c1cc2c(cn1)[nH]c1ccccc12 [CHNNHC6 H5, beta-carboline-3-carboxaldehyde-phenylhydrazone]
Benzodiazepine receptor [1]
  In vivo ED50, inhibition of 3H flunitrazepam binding (Affinity for the benzodiazepine receptor): > 250 mg/kg

## O=C1CC(c2cc3c(cn2)[nH]c2ccccc23)=NO1
Benzodiazepine receptor [2]
  In vitro IC50, inhibition of 3H flunitrazepam binding (Affinity for the benzodiazepine receptor): 0.156 µg/mL
Benzodiazepine receptor [1]
  In vivo ED50, inhibition of 3H flunitrazepam binding (Affinity for the benzodiazepine receptor): 100 mg/kg

## Cn1cnc(-c2cc3c(cn2)[nH]c2ccccc23)n1
Benzodiazepine receptor [2]
  In vitro IC50, inhibition of 3H flunitrazepam binding (Affinity for the benzodiazepine receptor): > 0.4 µg/mL
Benzodiazepine receptor [1]
  In vivo ED50, inhibition of 3H flunitrazepam binding (Affinity for the benzodiazepine receptor): 145 mg/kg

## CCN(CC)N=Cc1cc2c(cn1)[nH]c1ccccc12 [drawing 23]
Benzodiazepine receptor [2]
  In vitro IC50, inhibition of 3H flunitrazepam binding (Affinity for the benzodiazepine receptor): > 0.1 µg/mL
Benzodiazepine receptor [1]
  In vivo ED50, inhibition of 3H flunitrazepam binding (Affinity for the benzodiazepine receptor): 72 mg/kg

## CN(C)S(=O)(=O)c1ccc2[nH]c3cnc(C=O)cc3c2c1 [CHO, drawing 30, 6-dimethylsulfamoyl-beta-carboline-3-carboxaldehyde]
Benzodiazepine receptor [2]
  In vitro IC50, inhibition of 3H flunitrazepam binding (Affinity for the benzodiazepine receptor): > 0.1 µg/mL
Benzodiazepine receptor [1]
  In vivo ED50, inhibition of 3H flunitrazepam binding (Affinity for the benzodiazepine receptor): > 300 mg/kg

## CC(=NN(C)C)c1cc2c(cn1)[nH]c1ccccc12 [drawing 42]
[3]; [4]
  ED50: > 100 mg/kg
[3]; [5]
  ED50: 75 mg/kg
[3]; [6]
  ED50: 75 mg/kg

## O=C(N=CNO)c1cc2c(cn1)[nH]c1ccccc12 [CONCHNHOH, N-[(hydroxyamino)methylene]-beta-carboline-carboxamide]
Benzodiazepine receptor [1]
  In vivo ED50, inhibition of 3H flunitrazepam binding (Affinity for the benzodiazepine receptor): 93 mg/kg

## CN1N=C(c2cc3c(cn2)[nH]c2ccccc23)CC1=O
Benzodiazepine receptor [2]
  In vitro IC50, inhibition of 3H flunitrazepam binding (Affinity for the benzodiazepine receptor): > 0.4 µg/mL
Benzodiazepine receptor [1]
  In vivo ED50, inhibition of 3H flunitrazepam binding (Affinity for the benzodiazepine receptor): > 250 mg/kg

## Cc1noc(-c2cc3c(cn2)[nH]c2ccccc23)n1
Benzodiazepine receptor [2]
  In vitro IC50, inhibition of 3H flunitrazepam binding (Affinity for the benzodiazepine receptor): 0.00056 µg/mL
Benzodiazepine receptor [1]
  In vivo ED50, inhibition of 3H flunitrazepam binding (Affinity for the benzodiazepine receptor): 15 mg/kg

## CN(C)C=NC(=O)c1cc2c(cn1)[nH]c1ccccc12
Benzodiazepine receptor [2]
  In vitro IC50, inhibition of 3H flunitrazepam binding (Affinity for the benzodiazepine receptor): 0.09 µg/mL
Benzodiazepine receptor [1]
  In vivo ED50, inhibition of 3H flunitrazepam binding (Affinity for the benzodiazepine receptor): > 250 mg/kg

## C(=Nn1cnnc1)c1cc2c(cn1)[nH]c1ccccc12
Benzodiazepine receptor [2]
  In vitro IC50, inhibition of 3H flunitrazepam binding (Affinity for the benzodiazepine receptor): > 0.1 µg/mL
Benzodiazepine receptor [1]
  In vivo ED50, inhibition of 3H flunitrazepam binding (Affinity for the benzodiazepine receptor): > 250 mg/kg

## CC(=NO)c1cc2c(cn1)[nH]c1ccccc12 [drawing 11]
Benzodiazepine receptor [2]
  In vitro IC50, inhibition of 3H flunitrazepam binding (Affinity for the benzodiazepine receptor): > 0.1 µg/mL
Benzodiazepine receptor [1]
  In vivo ED50, inhibition of 3H flunitrazepam binding (Affinity for the benzodiazepine receptor): 186 mg/kg

## Cc1n[nH]c(-c2cc3c(cn2)[nH]c2ccccc23)n1
Benzodiazepine receptor [2]
  In vitro IC50, inhibition of 3H flunitrazepam binding (Affinity for the benzodiazepine receptor): 0.096 µg/mL
Benzodiazepine receptor [1]
  In vivo ED50, inhibition of 3H flunitrazepam binding (Affinity for the benzodiazepine receptor): 139 mg/kg

## C(=NN1CCCC1)c1cc2c(cn1)[nH]c1ccccc12 [drawing 45]
[3]; [4]
  ED50: 20 mg/kg
[3]; [5]
  ED50: 15 mg/kg
[3]; [6]
  ED50: 15 mg/kg

## ON=Cc1cc2c(cn1)[nH]c1ccccc12 [CHNOH, beta-carboline-3-carboxaldehyde-oxime]
Benzodiazepine receptor [2]
  In vitro IC50, inhibition of 3H flunitrazepam binding (Affinity for the benzodiazepine receptor): 0.0087 µg/mL
Benzodiazepine receptor [1]
  In vivo ED50, inhibition of 3H flunitrazepam binding (Affinity for the benzodiazepine receptor): 19 mg/kg

## CN(C)N=Cc1cc2c(cn1)[nH]c1ccccc12 [drawing 13]
Benzodiazepine receptor [2]
  In vitro IC50, inhibition of 3H flunitrazepam binding (Affinity for the benzodiazepine receptor): 0.0417 µg/mL
Benzodiazepine receptor [1]
  In vivo ED50, inhibition of 3H flunitrazepam binding (Affinity for the benzodiazepine receptor): 54 mg/kg

## O=CNC(=O)c1cc2c(cn1)[nH]c1ccccc12 [CONHCHO, beta-carboline-3-(N-formylcarboxamide)]
Benzodiazepine receptor [2]
  In vitro IC50, inhibition of 3H flunitrazepam binding (Affinity for the benzodiazepine receptor): 0.034 µg/mL
Benzodiazepine receptor [1]
  In vivo ED50, inhibition of 3H flunitrazepam binding (Affinity for the benzodiazepine receptor): 197 mg/kg

## NC(=O)NN=Cc1cc2c(cn1)[nH]c1ccccc12 [CHNNHCONH2, beta-carboline-3-carboxaldehyde-semicarbazone]
Benzodiazepine receptor [2]
  In vitro IC50, inhibition of 3H flunitrazepam binding (Affinity for the benzodiazepine receptor): > 0.1 µg/mL
Benzodiazepine receptor [1]
  In vivo ED50, inhibition of 3H flunitrazepam binding (Affinity for the benzodiazepine receptor): > 250 mg/kg

## O=C1CC(c2cc3c(cn2)[nH]c2ccccc23)=NN1
Benzodiazepine receptor [2]
  In vitro IC50, inhibition of 3H flunitrazepam binding (Affinity for the benzodiazepine receptor): > 0.1 µg/mL
Benzodiazepine receptor [1]
  In vivo ED50, inhibition of 3H flunitrazepam binding (Affinity for the benzodiazepine receptor): > 250 mg/kg

## c1ccc2c(c1)[nH]c1cnc(-c3nc[nH]n3)cc12
Benzodiazepine receptor [2]
  In vitro IC50, inhibition of 3H flunitrazepam binding (Affinity for the benzodiazepine receptor): 0.104 µg/mL
Benzodiazepine receptor [1]
  In vivo ED50, inhibition of 3H flunitrazepam binding (Affinity for the benzodiazepine receptor): 26 mg/kg
